Values quoted from earlier work as cited in patent publication US5834251A, “Methods of modifying carbohydrate moieties” (Alko Group Ltd., priority 1994, dated 1998).

Molecular target: α-2,6 Sialyltransferase, EC 2.4.99.1, from rat liver (Rattus norvegicus, UniProt P13721)
Details: read-out: Km for the sugar donor CMP-NeuAc; commercially available enzyme, such as that from rat liver

Sequence of α-2,6 Sialyltransferase, EC 2.4.99.1, from rat liver (P13721 whole entry): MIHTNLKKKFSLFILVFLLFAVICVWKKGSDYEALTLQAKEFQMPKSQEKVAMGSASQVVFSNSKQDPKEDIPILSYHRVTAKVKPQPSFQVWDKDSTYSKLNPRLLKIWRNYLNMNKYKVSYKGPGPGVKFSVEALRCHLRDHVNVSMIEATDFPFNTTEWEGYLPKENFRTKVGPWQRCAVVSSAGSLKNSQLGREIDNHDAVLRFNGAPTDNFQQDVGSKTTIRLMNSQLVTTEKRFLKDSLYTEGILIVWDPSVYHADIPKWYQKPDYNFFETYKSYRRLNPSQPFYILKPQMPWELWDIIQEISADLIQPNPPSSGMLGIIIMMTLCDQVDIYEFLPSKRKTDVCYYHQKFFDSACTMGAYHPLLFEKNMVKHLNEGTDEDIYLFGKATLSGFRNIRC

**Q.** For CC(=O)NC1C(O)CC(OP(=O)(O)OCC2OC(n3ccc(N)nc3=O)C(O)C2O)(C(=O)O)OC1C(O)C(O)CO (stereo not shown) [CMP-NeuAc, CMP-N-acetylneuraminic acid], which Km is on record?
**A.** 85 µM
